Measured values as given in US9260499B2, “Tumor antigen peptide and use thereof” (SAPPORO MEDICAL UNIVERSITY, priority 2008, dated 2016).
Where two headings read alike, the source gives them in different places.

Key:
[1] = target: HLA-A0201 (Homo sapiens, UniProt P04439, D140Y/D185E/D98H/E176V/E277Q/G131W/G231S/I119V/I121R/I166T/I218V/L300P/L318F/N151K/N90K/P208A/P217A/Q86G/Q94H/R138H/R169H/T345S); assay: HLA class I stabilization assay, binding affinity to HLA-A0201
[2] = tested on: lymphocytes from PBF-positive patients with osteosarcoma; assay: Frequency analysis of antigenic peptide-specific CTLs (LD/MLPC, HLA-A0201/PBF tetramer staining); format: cell-based, human
Description: Lymphocytes from five PBF-positive patients with osteosarcoma were subjected to ,mixed lymphocyte peptide culture under conditions of limiting dilution (limiting dilution/mixed lymphocyte peptide culture; LD/MLPC) to induce peptide-specific CTLs (Cancer Sci., 2008, 99:368-375, which is incorporated herein by reference). Regarding two patients: Patient Nos. 1 ,and 2, 50 ml of peripheral blood was collected to isolate peripheral blood mononuclear cells (PBMCs). PBMCs were cultured for 60 minutes at room temperature in AIM-V medium (Invitrogen) containing 1% human serum and supplemented with 50 μg/ml of the peptide shown in SEQ ID NO:4. PBMCs which were pulsed with the peptide were plated at 2×10^5 cells/200 μl/well on a U-bottomed 96-well microtiter plate and cultured in AIM-V medium containing 10% human serum, 20 U/ml IL-2, and 10 ng/ml IL-7. Seven days after the culture was started, half of the cultured medium in each well was replaced with AIM-V medium containing IL-2, IL-7, and the peptide shown in SEQ ID NO:4 in order to perform the second stimulation. Cells on 14 to 21 days after the culture was started were used for frequency analysis with a tetramer.
Regarding three patients: Patient Nos. 3, 4, and 5, CD8-positive cells were isolated from PBMCs using magnetic anti-CD8 microbeads (Miltenyi Biotec). CD8-positive cells were pulsed for 60 minutes with the peptide shown in SEQ ID NO:4 and inactivated by radiation. 1.0×10^5 to 2.1×10^5 CD8-positive cells/well were cultured on a 48-well microtiter plate using AIM-V medium containing 10% human serum, 20 U/ml IL-2, and 10 ng/ml IL-7, together with 2×10^5 to 5×10^5 cells/well of irradiated, peptide-pulsed CD8-positive cells. After 7 days of the culture, the irradiated peptide-pulsed CD8-positive cells were added as described above, in order to perform the second stimulation. Cells on 13 to 23 days after the culture was started were used for frequency analysis with a tetramer. A PE-labeled HLA-A0201/PBF tetramer (MBL) which was prepared using the peptide shown in SEQ ID NO:4 was used for the analysis.
An FITC-labeled HLA-A0201/HIV tetramer (MBL) which was prepared using an HIV-derived peptide was used as negative control. Some of the lymphocytes which were cultured using the LD/MLPC method were cultured at room temperature for 15 minutes with the PE-labeled HLA-A0201/PBF tetramer or with the FITC-labeled HLA-A0201/HIV tetramer (10 nM each, in 25 μl of PBS), followed by staining. Further, a PE-Cy5-labeled anti-CD8 antibody ,eBioscience) was added and incubated for 15 minutes, followed by staining. Then, cells were washed twice with PBS, fixed in 0.5% formalin, and analyzed in a flow cytometer FACScan. Living cells which were stained both with the PE-Cy5-labeled anti-CD8 antibody and with the PE-labeled HLA-A0201/PBF tetramer were considered to be tetramer-positive and peptide-specific CTLs. The frequency of CTLs specific for a peptide shown in SEQ ID ,NO:4 was determined using the following equation: Frequency=the number of tetramer-positive wells/(the total number of the wells examined×the number of CD8-positive cells per well at the start of LD/MLPC). Of the five patients, three patients: Patient Nos. […], had frequencies of 5×10^−6, 2×10^−7, and 5×10^−7, respectively.

| Substance | % MFI increase±standard deviation (SD) [1] [%] | % MFI increase±standard deviation (SD) ([1]; triplicate, FITC-labeled anti-HLA-A2 antibody BB7.2, flow cytometry) [%] | Frequency of CTLs specific for the peptide ([2]; Patient No. 1) | Number of tetramer-positive wells ([2]; Patient No. 1, PBMCs, 18 wells tested, 200,000 initial cells per well, 25% CD8) | Frequency of CTLs specific for the peptide ([2]; Patient No. 2) | Number of tetramer-positive wells ([2]; Patient No. 2, PBMCs, 46 wells tested, 200,000 initial cells per well, 24% CD8) | Frequency of CTLs specific for the peptide ([2]; Patient No. 3) | Number of tetramer-positive wells ([2]; Patient No. 3, CD8-positive cells, 56 wells tested, 210,000 initial cells per well, 99% CD8) | Frequency of CTLs specific for the peptide ([2]; Patient No. 4) | Number of tetramer-positive wells ([2]; Patient No. 4, CD8-positive cells, 36 wells tested, 150,000 initial cells per well, 99% CD8) | Frequency of CTLs specific for the peptide ([2]; Patient No. 5) | Number of tetramer-positive wells ([2]; Patient No. 5, CD8-positive cells, 103 wells tested, 100,000 initial cells per well, 99% CD8) |
| --- | --- | --- | --- | --- | --- | --- | --- | --- | --- | --- | --- | --- |
| RGYVYQGL [SEQ ID NO:6, reference compound] | 5.6±8.2 | – | – | – | – | – | – | – | – | – | – | – |
| SEQ ID NO:4: fragment peptide of tumor antigen protein PBF (papillomavirus binding factor) binding to HLA-A2 antigen; synthesized by the Fmoc method (ALPSFQIPV) | – | 74.5±6.6 | <1 × 10^−6 | 0 | 5×10^−6 | 10 | 2×10^−7 | 2 | 5×10^−7 | 3 | <1 × 10^−7 | 0 |
